In US20220290105A1, “MESENCHYMAL STEM CELLS WITH ENHANCED THERAPEUTIC PROPERTIES” (CELLS FOR CELLS S.A., priority 2019, published 2022):
Entries after “also recorded” stand apart in the source; their conditions may differ. Like-named read-outs stand apart in the source and are kept apart here.

What was measured:
[1] = tested on: murine CD4; assay: Immunosuppression after 6 or 24 hours pretreatment, co-culture with murine CD4 (FIG. 15); type: cell-based; settings: 3 days co-culture
Method: FIG. 15. […] MSC were treated for 6 and 24 hours oligomycin. Then, the media was removed, the cells were washed and these pretreated MSCs were co-cultured during 3 days with freshly isolated murine CD4 that were stained with cell trace violet. Proliferation of CD4+ was quantified by flow cytometry and graphed. N=4 different mice and * p<0.05.
The inventor developed an incubation experiment were the MSC were treated for 6 and 24 hours with an ATP-Synthase inhibitor, such as Oligomycin. After this treatment, the media with ATP-synthase inhibitor was removed, the MSCs were washed, and the MSCs were co-cultured during 3 days with murine freshly isolated CD4 and their effects were compared.

[2] = tested on: UC-MSCs; assay: Chondrogenic differentiation of UC-MSCs: micromass, Aggrecan qPCR, Collagen II vs Collagen I ratio (FIG. 5); type: cell-based; settings: basal media; for ratio of Collagen II vs Collagen I production: compared to MSC in basal media (CTL)
Source text: FIG. 5. […] UC-MSCs were differentiated towards chondrogenic lineage. […] The relative expression of the proteoglycan Aggrecan, which is typically expressed in hyaline cartilage, was quantified by qPCR. […] When MSC on basal media (CTL) are compared to MSC treated with inhibitors of the ATP-synthase, these treated MSC present chondrogenic behaviour on the ratio of Collagen II vs Collagen I proportion. […] Also, some inhibitors present the same behaviour than MSC in differentiation media (differentiation) (D).

[3] = tested on: UC-MSCs; assay: Transmigration of UC-MSCs through a semipermeable membrane with 8 μM pores (FIG. 11); type: cell-based; settings: quantified at 8 hours and 24 hours; 5% fetal bovine serum in lower chamber
Method: FIG. 11. UC-MSCs pretreated with oligomycin promote their transmigration potential. GlycoStem cells were cultured on a semipermeable membrane with […] diameter pores. Cells were seeded in serum-free medium in the upper chamber, while DMEM medium with 5% fetal bovine serum was added in the lower chamber to induce transmigration of the cells. Cell migration was quantified 8 hours (A and B) and 24 hours (C and D) later. […] N=3 different donors from 3 independent experiments * p<0.05.

[4] = tested on: UC-MSCs; assay: Metabolic status (OCR, ECAR, lactate efflux) and surface markers of treated MSCs (FIG. 4); type: cell-based
Source text: FIG. 4. […] (A) MSCs treated with ATP-Synthase inhibitors show a diminished oxidative phosphorylation, quantified as oxygen consumption rate (OCR), (B) and an enhanced glycolysis, shown as extracellular acidification rate (ECAR).
In order to determine the efficiency of MSCs treated with ATP-synthase inhibitors, the inventors first evaluated the glycolytic status of UC-MSCs using biochemical parameters such as lactate production and glucose consumption and also if possible, the metabolic status of MSCs treated with ATP-synthase inhibitors was evaluated in real time by measuring the oxygen consumption rate (OCR) or the extra cellular acidification rate (ECAR) by the Seahorse™ technology. Moreover, different functional assays were carried out in order to compare the efficacy of MSCs treated with ATP-synthase inhibitors as compared to non-treated UC-MSCs including evaluation of the differentiation potential towards chondrocytes, viability assays of MSCs, chondroprotection assays, immunosuppression assays and in vivo evaluation using joint inflammation murine models.

[5] = tested on: GVHD mice; assay: In vivo model of graft versus host disease (GVHD), Kaplan-Meier survival (FIG. 9); settings: UC-MSCs pre-treated or not with oligomycin
Source text: FIG. 9. […] A) Experimental design of the in vivo model of GVHD. B) Kaplan-Meier plot showing the survival rate of GVHD mice compared to UC-MSCs that were pre-treated or not with oligomycin. N=15 mice per experimental group performed at least 2 times independently—* p<0.05.

[6] = tested on: human mononuclear cells (PBMC); assay: Immunosuppression at different oligomycin pretreatment concentrations, co-culture with human PBMC (FIG. 14); type: cell-based; settings: pretreatment at 0.1 μg/ml, 1 μg/ml and 10 μg/ml; 4 days co-culture
Method: FIG. 14. […] MSC were with different oligomycin concentration (0.1 μg/ml, 1 μg/ml and 10 μg/ml), the media was removed and the cells were washed and cultured with freshly isolated human mononuclear cells (PBMC) that were stained with cell trace violet. Proliferation of CD4+ and CD8+ was quantified after 4 days of co-culturing by flow cytometry and graphed. N=3 PBMC and * p<0.05.
The inventors developed and immunosuppression experiment where the MSCs were pretreated with different concentrations of ATP-Synthase inhibitor, such as Oligomycin, more specifically at 0.1 μg/ml, 1 μg/ml and 10 μg/ml. After the pretreatment, the media with ATP-synthase inhibitor was removed, the MSCs were washed, and the MSC were cultured with freshly isolated human mononuclear cells (PBMC) that were stained with cell trace violet.

[7] = tested on: PBMC; assay: Coculture of human BM-MSCs, UC-MSCs or MenSC with phytohemaglutinine-activated PBMC, T-CD4 and T-CD8 proliferation by FACS (FIG. 12); type: cell-based; settings: BM-MSCs, 1 MSCs:20 PBMCs ratio, 4 days
Method: FIG. 12. […] Human BM-MSCs, UC-MSCs or MenSC were coculture with freshly isolated PBMC activated with phytohemaglutinine in a 1 MSCs:20 PBMCs ratio. After 4 days proliferation was measured by quantifying the decrease in cell fluorescence on either T-CD4 (A) or T-CD8 (B) cells in PBMCs by FACS. Results are represented as mean and SD of 3 independent experiments using at least 3 different PBMC donors and 2 different BM-MSCs, MenSC and UC-MSCs donors. Statistical analyses used the non-parametric Friedman test comparing more than two groups (*, p<0.05; **, p<0.01; ***, p<0.005).

[8] = tested on: mice with DTH; assay: In vivo model of delayed type hypersensitivity (DTH), paw swelling (FIG. 8); settings: mice treated with MSCs pre-incubated with or without oligomycin

Row | SMILES | suppressive activity (proliferation of CD4+) ([1]; 6 hours pretreatment) | suppressive activity (proliferation of CD4+) ([1]; 24 hours pretreatment) | ratio of Collagen II vs Collagen I production [2] | relative expression of the proteoglycan Aggrecan (qPCR) ([2]; compared to untreated control) | generation of three-dimensional tissue (micromass) / spontaneous differentiation into chondrocytes ([2]; no differentiation media, 24Hrs pre-treatment) | transmigration / migratory capacity [3] | metabolic switch towards glycolytic dependent metabolism (ECAR/OCR ratio) [4] | Surface markers of UC-MSC ([4]; after metabolic switch) | metabolic switch towards glycolytic dependent metabolism (ECAR/OCR ratio) ([4]; listed as Oligomycin) | survival rate of GVHD mice [5] | suppressive activity (proliferation of CD4+ and CD8+) [6] | immunosuppressive abilities of human MSCs (T-CD4 and T-CD8 proliferation) [7] | limb swelling (Paw Swelling) / inflammation in DTH [8]
1 | CC[C@H]1/C=C/C=C/C[C@@H](C)[C@H](O)[C@@](C)(O)C(=O)[C@@H](C)[C@H](O)[C@@H](C)C(=O)[C@@H](C)[C@H](O)[C@@H](C)/C=C/C(=O)O[C@@H]2[C@H](C)[C@H](CC1)O[C@]1(CC[C@H](C)[C@H](C[C@@H](C)O)O1)[C@H]2C [oligomycin, Oligomycin] | enhanced the suppressive activity of MSCs | enhanced suppressive activity; also recorded: highest enhancement of the MSCs suppression activity | fold change in the production of collagen type 2 versus collagen type 1 | increased relative expression; also recorded: increase in the relative expression | even greater than the three-dimensional tissue obtained by using the differentiation media alone; also recorded: spontaneously differentiate into chondrocytes; also recorded: stimulates the spontaneous differentiation towards a functional three-dimensional cartilage | significantly increase their migratory capacity | inducing a strongly glycolytic-dependent metabolism | not affected | induces a glycolytic dependent metabolism | increases the survival rate | enhanced suppressive activity that is dose dependent | enhances the immunosuppressive abilities of human MSCs independent on the origin | increases the therapeutic potential of MSCs
2 | Oc1ccc(C=Cc2cc(O)cc(O)c2)cc1 [resveratrol, Resveratrol] |  |  | fold change in the production of collagen type 2 versus collagen type 1; also recorded: promote the MSC in basal media to behave as MSC that are in a differentiation media |  |  |  |  |  |  |  |  |  | 
